Test results as given in patent US7279502B2, “Polyamine analog conjugates and quinone conjugates as therapies for cancers and prostate diseases” (Cellgate, Inc., priority 1999, dated 2007).
Like-named read-outs stand apart in the source and are kept apart here.

Assays:
Format in all cases: cell-based
[1] = tested on: human prostate adenocarcinoma cell line PC-3; experiment: MTT assay, quinones, PC-3; conditions: Table 3, treatment time not given in cell, read-out: ID50 PC-3
Protocol: (§1) Cell Culture: The human lung adenocarcinoma cell line, A549, and human prostatic cancer cell line, DUPRO, were a gift from Dr. M. Eileen Dolan, University of Chicago, Department of Medicine. A549 was grown in Ham's F-12K medium (Fisher Scientific, Itasca, Ill.) supplemented with 10% fetal bovine serum and 2 mM L-glutamine. DUPRO was grown in RPMI-1640 supplemented with 10% fetal bovine serum. The human colon carcinoma cell line, HT29, and the human breast carcinoma cell line, MCF7, were obtained from the American Type Culture Collection, Rockville, Md. HT29 cells were grown in McCoy's 5A medium (Gibco, BRL, Gaithersburg, Md.) supplemented with 10% fetal bovine serum. MCF7 cells were grown in Richter's Improved Modified Eagle's medium supplemented with 10% fetal bovine serum and 2.2 g/L sodium bicarbonate. The human prostate adenocarcinoma cell lines, LNCAP, PC-3 and DU145, were gifts from Dr. George Wilding, University of Wisconsin Comprehensive Cancer Center and the Department of Medicine, and were grown in Dulbecco's Modified Eagle's medium supplemented with a 5% fetal bovine serum. The malignant glioma cell line, U251MG NCI was obtained from the brain tumor tissue bank at the University of California, San Francisco Department of Neurosurgery, and was grown in Dulbecco's Modified Eagle's medium supplemented wth 10% fetal bovine serum. DUPRO, A549 and MCF7 cells were grown in 100 units/mL penicillin and 100 μg/mL streptomycin. HT29 and U251MG NCI cells were grown in 50 μg/mL gentamycin. LNCAP, PC-3 and DU145 cells were maintained in 1% antibiotic antimycotic solution (Sigma, St. Louis, Mo.). All cell cultures were maintained at 37° C. in 5% CO2/95% humidified air.
(§2) MTT assay. Exponentially growing monolayer cells were plated in 96 well plates at a density of 500 cells/well and allowed to grow for 24 h. Serially diluted drug solutions were added such that the final drug concentrations in the treatment media were between 0 and 35 μM. Cells were incubated with drug at either 4 hr or 72 hr. After 4 hr and 72 hr treatment, drugs were removed, fresh media (without) drug (100 uL) was added and cells were incubated for 6 days. After six days, 25 μL of a Dulbecco's phosphate-buffered saline solution containing 5 mg/mL of MTT (Thiazolyl blue) (Sigma) was added to each well and incubated for 4 h at 37° C. Then 100 μL of lysis buffer (20% sodium dodecyl sulfate, 50% N,N-dimethylformamide and 0.8% acetic acid, pH 4.7) was added to each well and incubated for an additional 22 h. A microplate reader (E max, Molecular Devices, Sunnyvale, Calif.) set at 570 nm was used to determine the optical density. Results were plotted as a ratio of the optical density in drug treated wells to the optical density in wells treated with vehicle alone. Plotting and estimation of ID50 values were accomplished with manufacturer supplied software. The data is presented below in Tables 3, 4, 5 and 6.

[2] = tested on: human breast carcinoma cell line, MCF7; experiment: MTT assay, quinones, MCF7; conditions: Table 4, treatment time not given in cell, read-out: ID50 Breast MCF7
Protocol: as §1, §2

[3] = tested on: human lung cancer cells A549; experiment: MTT assay, polyamine analogs, A549; conditions: for EC50: A549, survival of cultured A549 cells, figure legends, read-out: ED50 (the source's name)
Protocol: (§3) As shown in Table 2 and FIGS. 1-32, several novel conformationally restricted polyamine analogs were tested for anti-proliferative properties against cancer cells.
(§4) Human breast cancer cell line MCF7 was grown in Richter's Improved Modified Eagle's Medium supplemented with 10% fetal bovine serum (FBS) and 2.2 g/L sodium bicarbonate. Human brain tumor cell line U251 MG-NCI was grown in Dulbecco's Modified Eagle's Medium supplemented with 10% FBS. Human lung cancer cell line A549 was grown in Ham's F-12K medium (Cellgro, Mediatech, Inc., VA), supplemented with 10% FBS and 2 mM L-glutamine. Human colon cancer cell line HT29 was cultured in McCoy's 5A medium (Gibco, BRL, Gaithersburg, Md.) supplemented with 10% FBS. Human prostate cancer cell lines PC-3, LNCAP and DuPro were grown in RPMI 1640 Medium (Cellgro, Mediatech, Inc., VA) supplemented with 10% FBS. Another human prostate cancer cell line DU145 was grown in Dulbecco's Modified Eagle's Medium (Gibco, BRL, Gaithersburg, Md.) supplemented with 5% FBS. The A549, MCF7, PC3, LNCAP and DuPro cell lines were cultured in 100 units/mL penicillin and 100 μg/mL streptomycin. HT29 and U251MG cell lines were grown in 50 μg/mL gentamycin (Gibco, BRL, Gaithersburg, Md.). DU145 cell line was maintained in 1% antibitic-antimycotic solution (Sigma, St. Louis, Mo.). The cell cultures were maintained at 37° C. in 5% CO2/95% humidified air. DuPro cells were obtained from M. Eileen Dolan, University of Chicago. All other cells are available from the American Type Culture Collection, Rockville, Md.
(§5) A conventional MTT assay was used to evaluate percent cell survival. Exponentially growing monolayer cells were plated in 96-well plates at a density of 500 cells per well and allowed to grow for 24 hours. Serial dilutions of the drugs were added to the wells. Six days after drug treatment, 25 μl of MTT solution (5 mg/ml) was added to each well and incubated for 4 hours at 37° C. Then 100 μl of lysis buffer (20% sodium dodecyl sulfate, 50% DMF, and 0.8% acetic acid, pH 4.7) was added to each well and incubated for an additional 22 hours. A microplate reader (“EMAX”-brand, Molecular Devices, Sunnyvale, Calif.) set at 570 nm was used to determine the optical density of the cultures. Results are expressed as a ratio of the optical density in drug-treated wells to the optical density in wells treated with vehicle only.

[4] = tested on: human colon cancer cells HT29; experiment: MTT assay, polyamine analogs, HT29; conditions: for EC50: HT-29, survival of cultured HT29 cells, figure legends, read-out: ED50 (the source's name); for IC50: HT-29, 144 h, read-out: concentration needed for 50% growth inhibition (ID50) HT-29, Table 2, MTT six days after drug treatment
Protocol: as §3, §4, §5

[5] = tested on: human prostate cancer cells PC3; experiment: MTT assay, polyamine analogs, PC3; conditions: for EC50: PC-3, survival of cultured PC3 cells, figure legends, read-out: ED50 (the source's name)
Protocol: as §4, §5

[6] = tested on: human brain tumor cells U251 MG NCI; experiment: MTT assay, polyamine analogs, U251 MG NCI; conditions: for EC50: U-251, survival of cultured U251 MG NCI cells, figure legends, read-out: ED50 (the source's name); for IC50: U-251, 144 h, read-out: concentration needed for 50% growth inhibition (ID50) U251MG, Table 2, MTT six days after drug treatment
Protocol: as §4, §5

[7] = tested on: human prostate cancer cells DU145; experiment: MTT assay, polyamine analogs, DU145; conditions: for EC50: figure legends, read-out: ED50 (the source's name); for IC50: DU-145, 144 h, read-out: concentration needed for 50% growth inhibition (ID50) DU-145, Table 2, MTT six days after drug treatment
Protocol: as §4, §5

[8] = tested on: human prostate cancer cells LNCAP; experiment: MTT assay, polyamine analogs, LNCAP; conditions: survival of cultured LNCAP cells, figure legends, read-out: ED50 (the source's name)
Protocol: as §4
A conventional MTT assay was used to evaluate percent cell survival. Exponentially growing monolayer cells were plated in 96-well plates at a density of 500 cells per well and allowed to grow for 24 hours. Serial dilutions of the drugs were added to the wells. Six days after drug treatment, 25 μl of MTT solution (5 mg/ml) was added to each well and incubated for 4 hours at 37° C. […] A microplate reader (“EMAX”-brand, Molecular Devices, Sunnyvale, Calif.) set at 570 nm was used to determine the optical density of the cultures. Results are expressed as a ratio of the optical density in drug-treated wells to the optical density in wells treated with vehicle only.

[9] = tested on: human breast cancer cells MCF7; experiment: MTT assay, polyamine analogs, MCF7; conditions: for IC50: MCF7, 144 h, read-out: concentration needed for 50% growth inhibition (ID50) MCF7, Table 2, MTT six days after drug treatment; for EC50: MCF7, survival of cultured MCF7 cells, figure legends, read-out: ED50 (the source's name)
Protocol: as §3, §4, §5

[10] = tested on: human prostate cancer cells DUPRO; experiment: MTT assay, polyamine analogs, DUPRO; conditions: for IC50: 144 h, read-out: concentration needed for 50% growth inhibition (ID50) DUPRO, Table 2, MTT six days after drug treatment; for EC50: survival of cultured DUPRO cells, figure legends, read-out: ED50 (the source's name)
Protocol: as §4, §5

[11] = Homo sapiens, DU-145, survival of cultured DU145 cells
[12] = Homo sapiens, A549, 144 h, read-out: concentration needed for 50% growth inhibition (ID50) A549, Table 2, MTT six days after drug treatment
[13] = read-out: concentration needed for 50% growth inhibition (ID50) A549, Table 2, MTT six days after drug treatment

SMILES	EC50 ([3]; Homo sapiens)	EC50 [4]	EC50 [5]	EC50 [6]	EC50 [7, 11]	IC50 [3, 12]	IC50 [4]	IC50 [6]	IC50 ([7]; Homo sapiens)	IC50 [9]	EC50 [9]	IC50 ([10]; Homo sapiens, DuPro)	further results
CCCCN/C=C1\C=C(O)C(=O)c2ccccc21 [SL-11089]	–	–	–	–	–	–	–	–	–	–	–	–	IC50 [1]: 11000 nM; IC50 [2]: > 31200 nM
CCNCCCCNCC1CC1CNCCCCNCC (centres unmarked) [SL-11093]	260 nM	400 nM	1600 nM	70 nM	16 nM	–	–	–	–	–	–	–	EC50 ([8]; Homo sapiens, LNCaP): 210 nM
CCNCCCNCc1ccccc1CNCCCNCC [SL-11094]	> 31200 nM	28800 nM	> 31200 nM	> 31200 nM	15400 nM	> 31200 nM	28800 nM	> 31200 nM	12600 nM	> 31200 nM	> 31200 nM	–	–
CCCCN(CC1=CC(=O)C(=O)c2ccccc21)C(=O)CCC(=O)N1CCOCC1 [SL-11096]	–	–	–	–	–	–	–	–	–	–	–	–	IC50 [1]: 3600 nM; IC50 [2]: 3800 nM
CCNCCCCNCC1CC1CNCCCCNCC (centres unmarked) [SL-11098]	–	–	–	–	–	510 nM	400 nM	100 nM	18 nM	–	–	80 nM	–
CCNCCCCNCC1CCC1CNCCCCNCC (centres unmarked) [SL-11099]	510 nM	1000 nM	2500 nM	110 nM	14 nM	–	1000 nM	110 nM	14 nM	26300 nM	26300 nM	–	IC50 [3, 13]: 650 nM
CCNCCCCNCC1CCC1CNCCCCNCC (centres unmarked) [SL-11100]	–	–	–	–	–	–	–	–	–	–	–	–	IC50 [3, 13]: 2200 nM
CCNCCCCNC/C=C\CNCCCCNCC [SL-11102]	150 nM	730 nM	> 31200 nM	150 nM	30 nM	12400 nM	730 nM	150 nM	27 nM	> 31200 nM	> 31200 nM	150 nM	EC50 ([10]; Homo sapiens, DuPro): 150 nM
CCNCCCCNCc1ccccc1CNCCCCNCC [SL-11104]	> 31200 nM	25800 nM	> 31200 nM	14700 nM	9400 nM	430 nM	25800 nM	14700 nM	9400 nM	> 31200 nM	> 31200 nM	–	–
CCNCCCNCC1CCCC1NCCCNCC (centres unmarked) [SL-11105]	430 nM	25200 nM	> 31200 nM	25900 nM	1600 nM	> 31200 nM	25200 nM	25900 nM	1600 nM	> 31200 nM	> 31200 nM	> 31200 nM	IC50 ([5]; 144 h, read-out: concentration needed for 50% growth inhibition (ID50) PC-3, Table 2, MTT six days after drug treatment): > 31200 nM; EC50 ([10]; Homo sapiens, DuPro): 430 nM
CCNC/C=C\CNC/C=C\CNCCCCNCC [SL-11119]	–	970 nM	> 31200 nM	–	80 nM	–	970 nM	–	80 nM	–	–	440 nM	EC50 ([10]; Homo sapiens, DuPro): 440 nM
CCNCCCCNCCCCNCCCCNCCCCNC/C=C\CNCCCCNCCCCNCCCCNCCCCNCC [SL-11150]	–	–	–	–	–	–	–	–	–	–	–	–	EC50 [10]: 480 nM; EC50 ([7]; survival of cultured DU145 cells): 110 nM; EC50 [8]: 230 nM
